Test results reported in the supplement of paper PMC12350171.

How the values were obtained:
[1] = test system: Com21 synthetic gut community; assay: community biomass OD578 after 24 h drug treatment relative to untreated (fraction of untreated control); higher = more community growth; conditions: community: Com21 (Com20 + E. coli ED1a)
Protocol: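 Com21 (Com20 plus E. coli ED1a) was treated with drug for 24 h under anaerobic conditions in mGAM. Community OD578 was then measured and normalised to untreated Com21; mean of 3 biological replicates.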

[2] = test system: Parabacteroides merdae; assay: IC25 growth inhibition; higher = less potent
How it was run: (§1)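 Under anaerobic conditions, OD578 was read hourly in a plate reader for at least three biological replicates of monocultures grown overnight in mGAM. Each culture started at an OD578 of 0.01 in pre-reduced plates holding twofold drug dilutions and 1% DMSO (or water). IC25 was reported as a tested interval: the lowest concentration where the monotonic median area under the growth curve dropped below the cutoff. That cutoff was 0.75.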

[3] = test system: Clostridium saccharolyticum; assay: IC25 growth inhibition; higher = less potent
How it was run: as §1

[4] = test system: Bacteroides vulgatus; assay: IC25 growth inhibition; higher = less potent
How it was run: as §1

[5] = test system: Ruminococcus gnavus; assay: IC25 growth inhibition; higher = less potent
How it was run: as §1

[6] = test system: Clostridium perfringens; assay: IC25 growth inhibition; higher = less potent
How it was run: as §1

[7] = test system: Streptococcus parasanguinis; assay: IC25 growth inhibition; higher = less potent
How it was run: as §1

[8] = test system: Bacteroides uniformis; assay: IC25 growth inhibition; higher = less potent
How it was run: as §1

[9] = test system: Roseburia intestinalis; assay: IC25 growth inhibition; higher = less potent
How it was run: as §1

[10] = test system: Dorea formicigenerans; assay: IC25 growth inhibition; higher = less potent
How it was run: as §1

[11] = test system: Fusobacterium nucleatum subsp. Nucleatum; assay: IC25 growth inhibition; higher = less potent
How it was run: as §1

[12] = test system: Yersinia enterocolitica WA-314; assay: IC25 growth inhibition; higher = less potent
How it was run: as §1

[13] = test system: Yersinia pseudotuberculosis; assay: IC25 growth inhibition; higher = less potent
How it was run: as §1

[14] = test system: Bacteroides thetaiotaomicron; assay: IC25 growth inhibition; higher = less potent
How it was run: as §1

[15] = test system: Salmonella enterica typhimurium; assay: IC25 growth inhibition; higher = less potent
How it was run: as §1

[16] = test system: Escherichia coli ED1a; assay: IC25 growth inhibition; higher = less potent
How it was run: as §1

[17] = test system: Clostridium ramosum; assay: IC25 growth inhibition; higher = less potent
How it was run: as §1

[18] = test system: Shigella flexneri; assay: IC25 growth inhibition; higher = less potent
How it was run: as §1

[19] = test system: Bacteroides fragilis NT; assay: IC25 growth inhibition; higher = less potent
How it was run: as §1

[20] = test system: Coprococcus comes; assay: IC25 growth inhibition; higher = less potent
How it was run: as §1

[21] = test system: Vibrio cholerae; assay: IC25 growth inhibition; higher = less potent
How it was run: as §1

[22] = test system: Clostridium bolteae; assay: IC25 growth inhibition; higher = less potent
How it was run: as §1

[23] = test system: Collinsella aerofaciens; assay: IC25 growth inhibition; higher = less potent
How it was run: as §1

[24] = test system: Eubacterium rectale; assay: IC25 growth inhibition; higher = less potent
How it was run: as §1

[25] = test system: Streptococcus salivarius; assay: IC25 growth inhibition; higher = less potent
How it was run: as §1

[26] = drug pretreatment concentration 10 µM
[27] = drug pretreatment concentration 20 µM
[28] = drug pretreatment concentration 40 µM
[29] = drug pretreatment concentration 80 µM
[30] = drug pretreatment concentration 160 µM
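For IC25 growth inhibition in this document: lowest concentration where monotonic median growth AUC falls below 0.75 of drug-free control.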

SMILES	community biomass OD578 [1, 26]	community biomass OD578 [1, 27]	community biomass OD578 [1, 28]	community biomass OD578 [1, 29]	community biomass OD578 [1, 30]	IC25 growth inhibition [2] [µM]	IC25 growth inhibition [3] [µM]	IC25 growth inhibition [4] [µM]	IC25 growth inhibition [5] [µM]	IC25 growth inhibition [6] [µM]	IC25 growth inhibition [7] [µM]	IC25 growth inhibition [8] [µM]	IC25 growth inhibition [9] [µM]	IC25 growth inhibition [10] [µM]	IC25 growth inhibition [11] [µM]	IC25 growth inhibition [12] [µM]	IC25 growth inhibition [13] [µM]	IC25 growth inhibition [14] [µM]	IC25 growth inhibition [15] [µM]	IC25 growth inhibition [16] [µM]	IC25 growth inhibition [17] [µM]	IC25 growth inhibition [18] [µM]	IC25 growth inhibition [19] [µM]	IC25 growth inhibition [20] [µM]	IC25 growth inhibition [21] [µM]	IC25 growth inhibition [22] [µM]	IC25 growth inhibition [23] [µM]	IC25 growth inhibition [24] [µM]	IC25 growth inhibition [25] [µM]	community biomass OD578 ([1]; drug pretreatment concentration 2.5 µM)	community biomass OD578 ([1]; drug pretreatment concentration 5 µM)
CCCc1nc2c(C)cc(-c3nc4ccccc4n3C)cc2n1Cc1ccc(-c2ccccc2C(=O)O)cc1 [Telmisartan]	0.994	0.966	0.932	0.892	0.956	> 160	> 80	> 160	> 160	> 160	> 160	> 160	> 160	> 80	> 80	> 40	> 40	> 160	> 160	> 160	≤ 40	> 40	> 160	> 80	> 40	> 80	> 160	> 80	≤ 40		
CN(C)CCCN1c2ccccc2Sc2ccc(Cl)cc21 [Chlorpromazine]	1	0.983	0.941	0.927	0.813	≤ 40	≤ 80	≤ 40	≤ 40	≤ 80	≤ 160	≤ 80	≤ 80	≤ 40	≤ 80	> 160	≤ 160	≤ 80	> 160	≤ 160	> 160	≤ 160	≤ 80	≤ 160	≤ 160	≤ 160	≤ 160	≤ 40	≤ 80		
CNCCCC1c2ccccc2C=Cc2ccccc21 [Protriptyline]	0.995	1.02	1.01	0.991	0.956	> 160	> 160	≤ 40	> 160	> 160	> 160	≤ 160	> 160	> 160	≤ 160	≤ 160	> 160	≤ 80	> 160	> 160	> 160	> 160	> 160	> 160	> 160	> 160	> 160	> 160	> 160		
CC(=O)Oc1cccc2c1C(=O)c1c(OC(C)=O)cc(C(=O)O)cc1C2=O [Diacerein]	0.936	0.913	0.728	0.337	0.284	< 1.25	≤ 2.5	≤ 2.5	≤ 10	≤ 20	≤ 10	≤ 5	< 1.25	< 1.25	≤ 10	> 160	≤ 160	≤ 2.5	> 160	> 160	≤ 10	> 160	≤ 2.5	≤ 20	≤ 40	≤ 2.5	≤ 2.5	< 1.25	≤ 10		
CN(Cc1cnc2nc(N)nc(N)c2n1)c1ccc(C(=O)N[C@@H](CCC(=O)O)C(=O)O)cc1 [Methotrexate]	0.934	0.95	0.802			> 80	> 80	≤ 20	≤ 10	≤ 20	< 1.25	≤ 10	> 80	≤ 40	≤ 20	> 80	> 80	> 80	> 80	> 40	< 1.25	> 80	≤ 40	≤ 80	≤ 40	≤ 10	≤ 80	≤ 80	≤ 5	0.93	0.91
CN(N=O)C(=O)N[C@@H](C=O)[C@@H](O)[C@H](O)[C@H](O)CO [Streptozotocin]	0.909	0.921	0.872	0.859	0.889	≤ 20	< 1.25	≤ 20	< 1.25	> 160	≤ 20	≤ 40	< 1.25	> 160	< 1.25	≤ 2.5	≤ 2.5	≤ 40	≤ 10	≤ 2.5	< 1.25	≤ 2.5	≤ 20	≤ 2.5	≤ 2.5	≤ 2.5	≤ 10	> 160	> 160		
CCN(CC)CCOc1ccc(C(=C(Cl)c2ccccc2)c2ccccc2)cc1 [Clomifen]						≤ 40	≤ 40	≤ 40	≤ 10	≤ 40	≤ 80	≤ 40	≤ 20	≤ 10	≤ 80	> 80	> 40	≤ 40	> 160	> 160	≤ 40	> 80	≤ 40	≤ 40	≤ 80	≤ 80	≤ 20	≤ 40	≤ 40		
CC(C)(O)c1ccccc1CC[C@@H](SCC1(CC(=O)O)CC1)c1cccc(/C=C/c2ccc3ccc(Cl)cc3n2)c1 [Montelukast]						> 80	> 10	> 80	> 80	≤ 5	≤ 10	> 80	≤ 10	> 80	> 80	> 10	> 20	> 80	> 10	> 160	> 10	> 20	> 40	> 80	> 20	> 40	> 20	≤ 10	≤ 5		
